Measured values from BindingDB's records for patent US20250188037 (Takeda Pharmaceutical, 2025).

What was measured:
[1] = molecular target: Somatostatin receptor type 4 (Homo sapiens, UniProt P31391); experiment: SSTR4 I-125 Somatostatin Competition Binding Assay for Selectivity Versus SSTR4
Method: Then 1 μg of SSTR4 membranes in 50 μL assay buffer are added per well. The Plate is incubated for 60 minutes at room temperature. […] The contents of the assay plate are transferred to filters with a TomTech harvester and washed 5 times with 20 mM HEPES, 100 mM NaCl. […] The scintillator sheets are melted to filters using a heat block. The filters are then read in a MicroBeta scintillation counter. Binding Ki curves are generated using Activity Base for Screening Data Management and the results are reported as pIC50.

[2] = molecular target: Somatostatin receptor type 1 (Homo sapiens, UniProt P30872); experiment: SSTR1 I-125 Somatostatin Competition Binding Assay for Selectivity Versus SSTR1
Sequence of Somatostatin receptor type 1 (P30872 whole entry): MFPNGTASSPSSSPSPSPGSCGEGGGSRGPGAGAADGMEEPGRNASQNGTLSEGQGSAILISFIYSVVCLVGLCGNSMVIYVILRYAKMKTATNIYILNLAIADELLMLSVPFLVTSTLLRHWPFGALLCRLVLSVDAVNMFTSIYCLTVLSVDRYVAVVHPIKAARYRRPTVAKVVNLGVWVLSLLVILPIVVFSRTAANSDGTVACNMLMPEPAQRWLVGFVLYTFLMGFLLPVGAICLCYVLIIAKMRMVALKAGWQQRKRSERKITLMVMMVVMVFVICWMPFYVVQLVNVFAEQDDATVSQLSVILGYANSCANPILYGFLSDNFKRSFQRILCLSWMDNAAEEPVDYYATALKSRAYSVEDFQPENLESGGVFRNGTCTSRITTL
Method: Then 10 μg of SSTR1 membranes in 50 μL assay buffer are added per well. The plate is incubated for 60 minutes at room temperature. […] The contents of the assay plate are transferred to filters with a TomTech harvester and washed 5 times with 20 mM HEPES, 100 mM NaCl. […] The scintillator sheets are melted to the filters using a heat block. The filters are then read in a MicroBeta scintillation counter. Binding Ki curves are generated using Activity Base for Screening Data Management and the results are reported as pIC50.

Sequence of Somatostatin receptor type 4 (P31391 whole entry): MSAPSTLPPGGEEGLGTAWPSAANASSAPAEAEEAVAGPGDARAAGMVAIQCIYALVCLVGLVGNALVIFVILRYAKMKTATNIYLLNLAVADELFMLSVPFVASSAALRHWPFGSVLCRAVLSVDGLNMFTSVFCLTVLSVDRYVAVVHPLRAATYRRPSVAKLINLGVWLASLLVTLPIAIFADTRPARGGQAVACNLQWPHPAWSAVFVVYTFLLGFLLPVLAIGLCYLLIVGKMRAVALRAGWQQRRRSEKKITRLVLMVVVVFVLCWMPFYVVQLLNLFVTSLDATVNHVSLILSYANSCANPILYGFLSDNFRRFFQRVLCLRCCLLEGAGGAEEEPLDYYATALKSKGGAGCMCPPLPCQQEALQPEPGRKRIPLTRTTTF

IC50 [1]: 87.1 nM
IC50 [2]: > 50100 nM
Structure (SMILES): O=C(N[C@H]1CCNC[C@@H]1F)C1(Cc2cccc(F)c2)CC1 [US20250188037, Example 44]
